Our source for the IC50 values is BindingDB's records for doi:10.7270/Q2ZC819K (Burnham Center For Chemical Genomics, 2009).

Sequence of Polyadenylate-binding protein 1 (P11940 whole entry): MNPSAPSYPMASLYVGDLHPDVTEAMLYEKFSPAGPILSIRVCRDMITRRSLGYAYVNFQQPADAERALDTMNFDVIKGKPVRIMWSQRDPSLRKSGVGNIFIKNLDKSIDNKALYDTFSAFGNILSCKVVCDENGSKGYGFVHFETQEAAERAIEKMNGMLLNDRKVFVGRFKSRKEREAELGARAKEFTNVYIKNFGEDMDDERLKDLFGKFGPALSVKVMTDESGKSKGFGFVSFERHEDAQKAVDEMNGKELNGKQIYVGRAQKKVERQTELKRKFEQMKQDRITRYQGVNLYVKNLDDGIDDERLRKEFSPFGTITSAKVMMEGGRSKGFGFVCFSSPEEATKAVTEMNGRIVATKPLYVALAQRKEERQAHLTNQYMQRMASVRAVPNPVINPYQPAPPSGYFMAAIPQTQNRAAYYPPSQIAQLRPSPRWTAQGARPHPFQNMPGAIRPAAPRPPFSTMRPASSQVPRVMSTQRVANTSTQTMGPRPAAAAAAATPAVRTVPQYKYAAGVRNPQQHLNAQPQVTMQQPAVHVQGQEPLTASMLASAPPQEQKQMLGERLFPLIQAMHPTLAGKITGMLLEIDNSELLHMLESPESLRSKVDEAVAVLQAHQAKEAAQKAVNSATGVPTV

The assay has as its target Polyadenylate-binding protein 1 (Homo sapiens, UniProt P11940). As to the kind of experiment: blockers of PABP interaction with poly(A) – biochemical, fluorescence polarization, uHTS, primary screen (AID 2014).
Compound `CC[N+](C)(CC)CCCC(N=O)C(O)(c1ccccc1)c1ccccc1` (centres undefined) [diethyl-(5-hydroxy-4-hydroxyimino-5,5-diphenylpentyl)-methylammonium;iodide] displayed an IC50 of 5.57 µM.

In turn, `O=C1N=c2ccccc2=C1NNC(=O)c1cc(-c2cccs2)n[nH]1` [N'-(2-oxoindol-3-yl)-5-thiophen-2-yl-1H-pyrazole-3-carbohydrazide] had an IC50 of 28.8 µM.

With `COc1ccc(CN=Nc2nc(O)c(CC(=O)O)s2)cc1OCc1ccc(Cl)cc1Cl` [[2-({3-[(2,4-dichlorobenzyl)oxy]-4-methoxybenzylidene}hydrazono)-4-oxo-1,3-thiazolidin-5-yl]acetic acid], the IC50 turned out to be 64.3 µM.

The compound `COc1cc(C)cc(C(=O)O)c1C1C(=O)C(=O)c2c(O)cccc2C1=O` (centres undefined) [MLS000877007] yielded an IC50 of 5.41 µM.

Compound `CCn1c(=NC(=O)c2ccc(-n3c(O)ccc3O)cc2)sc2c(OC)ccc(OC)c21` [4-[2,5-bis(oxidanylidene)pyrrolidin-1-yl]-N-(3-ethyl-4,7-dimethoxy-1,3-benzothiazol-2-ylidene)benzamide] showed an IC50 of 100 µM.

`CC1(C)Oc2ccc3ccc(=O)oc3c2C(CN=O)=C1Cl` [9-chloro-2-keto-8,8-dimethyl-pyrano[2,3-f]chromene-10-carbaldehyde oxime] returned an IC50 of 10.3 µM.

Compound `O=C(O)c1ccc(N=NCc2cc3c(cc2[N+](=O)[O-])OCO3)cc1` came in with an IC50 of 48.8 µM.

Turning to `CC1=NC(=O)NC(c2ccco2)C1C(=O)OC(C)C` (centres undefined) [SMR000120838], the 50% inhibitory concentration (IC50) is 42.8 µM.

Take `COc1ccc2c(c1)=C(NNC(=O)Cc1cccs1)C(=O)N=2`: the IC50 was found to be 31 µM.
